Test results as given in patent publication US11884647B2, “Compounds and methods for targeting pathogenic blood vessels” (THE REGENTS OF THE UNIVERSITY OF CALIFORNIA, priority 2019, dated 2024).

System: tumor endothelial cells (LL/2 lung cancer tumor)
Assay: Lung LL2 ex vivo model of tumor angiogenesis
Assay type: cell-based, mouse
Settings: for Cell death: Lung LL2 ex vivo, Conc. 40 μm, drug treatment two days
Experimental: This example describes a procedure to prepare a primary tumor angiogenesis model for assessing the efficacy of anti-cancer candidate agents.
1. The day before the experiment, spray all necessary tools with 70% ethanol and sterilize them under UV light overnight, including blade, dissecting and micro-dissecting scissors and […]. Place 24-well dishes at 4° C. to pre-chill plates and thaw Matrigel 24 hours before tumor dissection.
2. Spray 70% ethanol on working bench. Prepare two sterile petri dishes with 10 mL sterile PBS. Steps 3 and 4 are for mouse tumor models. For fresh human tumor, directly go to step 5.
3. Euthanize the tumor-bearing mice. Spray 70% ethanol on the mouse and remove the tumor using sterilized dissecting tools (avoid the fur). Rinse the tumor in petri dish with sterile PBS to remove ethanol and fur. Transfer the tumor to a new petri dish with PBS for dissection. Place the dish on ice.
4. Using pre-chilled sterile pipet tips to seed regular Matrigel in 24 well plates on ice. Matrigel (30 μL) is dropped in the middle of each well without touching the edge of the well (avoid introducing bubbles if possible).
5. Cut the tumor in halves using the sterile blade. Identify and isolate healthy tumor tissue that is not necrotic and is within the tumor capsule. Cut the healthy tumor tissue into small pieces. For instance, a suitable size for the tumor tissue is 0.5 mm (H)×0.5 mm (L)×0.3 mm (D) with a total volume of 0.075 mm^3.
6. Gently transfer and embed each tumor piece in the Matrigel drop in the 24-well plate. Place the embedded piece in the bottom and middle of each Matrigel drop. Keep the plate on ice all the time.
7. After seeding the tumor pieces, plates are incubated in a 37° C. cell culture incubator without medium for 10 minutes in order for the Matrigel to solidify.
8. Endothelial Growth Medium (0.5 mL) is added to each well and incubated at 37° C. with 5% CO2. Wait until the new endothelial cells have grown out of the tumor or are larger than 3 mm in diameter until treatment. This usually takes 4 days for the LL2 Lewis lung cancer model and 7 days for the CT26 colon cancer model. For human tumor models, the growth time is typically 2-3 weeks, depending on the tumor type. Media is changed every 4 days during prolonged culture. Typically, when the tumor tissue grows to 2 mm in diameter, it is good for drug testing. A size of about 3 mm in diameter can make visualization easier.
9. When the assay is ready to be analyzed for cell death (e.g., 48 hours after drug addition), prepare the dye mixture by mixing 6 μL of green dye to stain live cells (5 mg/mL Fluorescein diacetate or FDA in DMSO) with 30 μL of red dye (2.5 mg/mL Propidium iodide or PI in PBS) to stain dead cells in an Eppendorf tube. The FDA dye needs to be stored frozen in a −20° C. freezer because it has a labile ester bond.
10. Add 1 μL of the dye mixture to each well of the 24-well dish. It is usually performed one 24-well dish at a time given the amount of time needed to take pictures (the green dye is not as stable in the cells in the long term).
11. Gently rock the dish a few times to mix the dye with the media in the wells and incubate the dish at 37° C. for 10 min (too long incubation can make the green signal too intense).
12. Wash each well with 0.5 mL of sterile PBS and then add 0.5 mL of phenol red free SFM to each well. Alternatively 0.5 mL of regular Endothelial Cell Growth Media can be added to each well if this well needs to be continuously maintained after the experiment.
13. Look through all wells on an inverted microscope using the 2× objective lens to observe morphological changes.
14. Taking pictures in the red and green channels would allow not only the recording of the result but also more accurate quantitation of the result. To take pictures for all the wells, first pick a well that has robust red and green signals. […]

[1] = Mus musculus, Endothelial cell, 48 h, read-out: Cell death

Row | Structure (SMILES) | cytotoxicity at 40 µM [1] | further results
1 | CCCCOc1ccc(S(=O)(=O)c2cnc3ccc(S(C)(=O)=O)cc3c2N2CCC(N3CCC(O)CC3)CC2)cc1 [compound 170, 1′-(3-((4-butoxyphenyl)sulfonyl)-6-(methylsulfonyl)quinolin-4-yl)-[1,4′-bipiperidin]-4-ol] | – | cytotoxicity at 20 µM [1]: 10%
2 | CCOC(=O)c1ccc2ncc(S(=O)(=O)c3ccc(OC)cc3)c(N3CCC(N4CCN(C)CC4)CC3)c2c1 [compound 171, ethyl 3-((4-methoxyphenyl)sulfonyl)-4-(4-(4-methylpiperazin-1-yl)piperidin-1-yl)quinoline-6-carboxylate] | 40% | –
3 | CCCCOc1ccc(S(=O)(=O)c2cnc3ccc(C(=O)OCC)cc3c2N2CCC(N3CCN(C)CC3)CC2)cc1 [compound 172, ethyl 3-((4-butoxyphenyl)sulfonyl)-4-(4-(4-methylpiperazin-1-yl)piperidin-1-yl)quinoline-6-carboxylate] | 100% | –
4 | CCOC(=O)c1ccc2ncc(S(=O)(=O)c3ccc(OC)cc3)c(N3CCC(N4CCCCCC4)CC3)c2c1 [compound 173, ethyl 4-(4-(azepan-1-yl)piperidin-1-yl)-3-((4-methoxyphenyl)sulfonyl)quinoline-6-carboxylate] | 50% | –
5 | CCOC(=O)c1ccc2ncc(S(=O)(=O)c3ccc(OC)cc3)c(N3CCC(N4CCCC(O)C4)CC3)c2c1 (stereo not drawn) [compound 174, ethyl 4-(3-hydroxy-[1,4′-bipiperidin]-1′-yl)-3-((4-methoxyphenyl)sulfonyl)quinoline-6-carboxylate] | 30% | –
6 | CCOC(=O)c1ccc2ncc(S(=O)(=O)c3ccc(OC)cc3)c(N3CCC(N4CCC(CO)CC4)CC3)c2c1 [compound 175, ethyl 4-(4-(hydroxymethyl)-[1,4′-bipiperidin]-1′-yl)-3-((4-methoxyphenyl)sulfonyl)quinoline-6-carboxylate] | 30% | –
7 | CCCCOc1ccc(S(=O)(=O)c2cnc3ccc(C(=O)OCC)cc3c2N2CCC(N3CCCCCC3)CC2)cc1 [compound 176, ethyl 4-(4-(azepan-1-yl)piperidin-1-yl)-3-((4-butoxyphenyl)sulfonyl)quinoline-6-carboxylate] | 100% | –
8 | CCCCOc1ccc(S(=O)(=O)c2cnc3ccc(C(=O)OCC)cc3c2N2CCC(N3CCCC(O)C3)CC2)cc1 (stereo not drawn) [compound 177, ethyl 3-((4-butoxyphenyl)sulfonyl)-4-(3-hydroxy-[1,4′-bipiperidin]-1′-yl)quinoline-6-carboxylate] | 100% | –
9 | CCCCOc1ccc(S(=O)(=O)c2cnc3ccc(C(=O)OCC)cc3c2N2CCC(N3CCC(CO)CC3)CC2)cc1 [compound 178, ethyl 3-((4-butoxyphenyl)sulfonyl)-4-(4-(hydroxymethyl)-[1,4′-bipiperidin]-1′-yl)quinoline-6-carboxylate] | 100% | –
10 | CCOC(=O)c1ccc2ncc(S(=O)(=O)c3ccc(OC)cc3)c(N3CCCN(CCN4CCCCC4)CC3)c2c1 [compound 179, ethyl 3-((4-methoxyphenyl)sulfonyl)-4-(4-(2-(piperidin-1-yl)ethyl)-1,4-diazepan-1-yl)quinoline-6-carboxylate] | – | cytotoxicity at 10 µM [1]: 60%
11 | CCOC(=O)c1ccc2ncc(S(=O)(=O)c3ccc(OC)cc3)c(N3CCCN(CCN4CCCC4)CC3)c2c1 [compound 180, ethyl 3-((4-methoxyphenyl)sulfonyl)-4-(4-(2-(pyrrolidin-1-yl)ethyl)-1,4-diazepan-1-yl)quinoline-6-carboxylate] | – | cytotoxicity at 10 µM [1]: 70%
12 | CCCCOc1ccc(S(=O)(=O)c2cnc3ccc(C(=O)OCC)cc3c2N2CCCN(CCN3CCCCC3)CC2)cc1 [compound 181, ethyl 3-((4-butoxyphenyl)sulfonyl)-4-(4-(2-(piperidin-1-yl)ethyl)-1,4-diazepan-1-yl)quinoline-6-carboxylate] | 100% | –
13 | CCCCOc1ccc(S(=O)(=O)c2cnc3ccc(C(=O)OCC)cc3c2N2CCCN(CCN3CCCC3)CC2)cc1 [compound 182, ethyl 3-((4-butoxyphenyl)sulfonyl)-4-(4-(2-(pyrrolidin-1-yl)ethyl)-1,4-diazepan-1-yl)quinoline-6-carboxylate] | 100% | –
14 | CCOC(=O)c1ccc2ncc(S(=O)(=O)c3ccc(OC)cc3)c(-n3cncn3)c2c1 [compound 183, ethyl 3-((4-methoxyphenyl)sulfonyl)-4-(1H-1,2,4-triazol-1-yl)quinoline-6-carboxylate] | – | cytotoxicity at 10 µM [1]: 100%
15 | CCOC(=O)c1ccc2ncc(S(=O)(=O)c3ccc(OC)cc3)c(-n3ccnn3)c2c1 [compound 184, ethyl 3-((4-methoxyphenyl)sulfonyl)-4-(1H-1,2,3-triazol-1-yl)quinoline-6-carboxylate] | – | cytotoxicity at 10 µM [1]: 5%
16 | CCOC(=O)c1ccc2ncc(S(=O)(=O)c3ccc(OC)cc3)c(-n3cnnn3)c2c1 [compound 185, ethyl 3-((4-methoxyphenyl)sulfonyl)-4-(1H-tetrazol-1-yl)quinoline-6-carboxylate] | – | cytotoxicity at 10 µM [1]: 30%
17 | CCCCOc1ccc(S(=O)(=O)c2cnc3ccc(C(=O)OCC)cc3c2-n2cnnn2)cc1 [compound 186, ethyl 3-((4-butoxyphenyl)sulfonyl)-4-(1H-tetrazol-1-yl)quinoline-6-carboxylate] | – | cytotoxicity at 10 µM [1]: 90%
18 | CCCCOc1ccc(S(=O)(=O)c2cnc3ccc(OC(F)(F)F)cc3c2N2CCSCC2)cc1 [compound 187, 4-(3-((4-butoxyphenyl)sulfonyl)-6-(trifluoromethoxy)quinolin-4-yl)thiomorpholine] | 30% | –
19 | CCCCOc1ccc(S(=O)(=O)c2cnc3ccc(C(=O)NC4C(O)O[C@H](CO)[C@@H](O)[C@@H]4O)cc3c2N2CCCN(C)CC2)cc1 (stereo partly drawn) [compound 193, 3-((4-butoxyphenyl)sulfonyl)-4-(4-methyl-1,4-diazepan-1-yl)-N-((4R,5S,6R)-2,4,5-trihydroxy-6-(hydroxymethyl)tetrahydro-2H-pyran-3-yl)quinoline-6-carboxamide] | – | Cell death: 30%
20 | CCCCOc1ccc(S(=O)(=O)c2cnc3ccc(C(=O)OCC)cc3c2N2CCS(=O)(=O)CC2)cc1 [compound 196, ethyl 3-((4-butoxyphenyl)sulfonyl)-4-(1,1-dioxidothiomorpholino)quinoline-6-carboxylate] | 30% | –
21 | CCCCOc1ccc(S(=O)(=O)c2cnc3ccc(OC(F)(F)F)cc3c2N2CC[S+]([O-])CC2)cc1 [compound 197, 4-(3-((4-butoxyphenyl)sulfonyl)-6-(trifluoromethoxy)quinolin-4-yl)thiomorpholine 1-oxide] | 20% | –
22 | CCCCOc1ccc(S(=O)(=O)c2cnc3ccc(OC(F)(F)F)cc3c2N2CCS(=O)(=O)CC2)cc1 [compound 198, 4-(3-((4-butoxyphenyl)sulfonyl)-6-(trifluoromethoxy)quinolin-4-yl)thiomorpholine 1,1-dioxide] | 30% | –
23 | CCCCOc1ccc(S(=O)(=O)c2cnc3ccc(C(=O)N(CC)CC)cc3c2N2CCCN(C)CC2)cc1 [compound 199, 3-((4-butoxyphenyl)sulfonyl)-N,N-diethyl-4-(4-methyl-1,4-diazepan-1-yl)quinoline-6-carboxamide] | 30% | –
24 | CCCCOc1ccc(S(=O)(=O)c2cnc3ccc(C(=O)NCCO)cc3c2N2CCCN(C)CC2)cc1 [compound 200, 3-((4-butoxyphenyl)sulfonyl)-N-(2-hydroxyethyl)-4-(4-methyl-1,4-diazepan-1-yl)quinoline-6-carboxamide] | – | Cell death: 30%
